The record followed here is ChEMBL document CHEMBL1141788, “Dendridine A, a bis-indole alkaloid from a marine sponge Dictyodendrilla Species” (2005).

What all share (assay type): functional
The test system of one experiment is Micrococcus luteus. The experiment is described as follows: Antibacterial activity against Micrococcus luteus.
In the next experiment the test system is Bacillus subtilis. The experiment is described as follows: Antibacterial activity against Bacillus subtilis.
For the next experiment, the system named is Cryptococcus neoformans. The experiment is described as follows: Antifungal activity against Cryptococcus neoformans.

In brackets after ≈: the same amount, converted by molar mass.

Consider `NCCc1c[nH]c2c(O)cc(Br)c(-c3c(Br)cc(O)c4[nH]cc(CCN)c34)c12` [DENDRIDINE A], for which the MIC in the experiment with Micrococcus luteus was determined as 4.2 µg/mL (≈ 8.26 µM); against Bacillus subtilis, 8.3 µg/mL (≈ 16.3 µM); in the experiment on Cryptococcus neoformans it was 8.3 µg/mL (≈ 16.3 µM).
